Measurements: ChEMBL document CHEMBL1201862, “PubChem BioAssay data set” (2004)
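Method: 48-hour compound exposure of cells in 96-well plates, five concentrations, linear interpolation of endpoints. Here, GI50 denotes the concentration required for 50% inhibition of growth.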 The source made the active and inactive calls. Cut-off read from the data, not from the text of the source: active = GI50 up to about 1.1 µM and inactive = higher.

Key:
Assay in all cases: NCI-60 cell line screen, 48 h
[1] = system: 786-0
[2] = system: A498
[3] = system: A549
[4] = system: ACHN
[5] = system: CAKI-1
[6] = system: CCRF-CEM
[7] = system: COLO 205
[8] = system: DU-145
[9] = system: EKVX
[10] = system: HCC 2998
[11] = system: HCT-116
[12] = system: HCT-15
[13] = system: HOP-62
[14] = system: HOP-92
[15] = system: Hs-578T
[16] = system: K562
[17] = system: KM12
[18] = system: LOX IMVI
[19] = system: M14
[20] = system: MCF7
[21] = system: MDA-MB-231
[22] = system: MDA-MB-435
[23] = system: MDA-N
[24] = system: MOLT-4
[25] = system: NCI-H226
[26] = system: NCI/ADR-RES
[27] = system: OVCAR-3
[28] = system: OVCAR-4
[29] = system: OVCAR-5
[30] = system: PC-3
[31] = system: RPMI-8226
[32] = system: RXF 393
[33] = system: SF-268
[34] = system: SF-295
[35] = system: SF-539
[36] = system: SK-MEL-28
[37] = system: SK-MEL-2
[38] = system: SK-MEL-5
[39] = system: SK-OV-3
[40] = system: SN12C
[41] = system: SNB-19
[42] = system: SNB-75
[43] = system: SW-620
[44] = system: T47D
[45] = system: TK-10
[46] = system: U-251
[47] = system: UACC-257
[48] = system: UACC-62
[49] = system: UO-31
[50] = system: HL-60
[51] = system: HT-29
[52] = system: IGROV-1
[53] = system: Malme-3M
[54] = system: NCI-H23
[55] = system: NCI-H460
[56] = system: NCI-H522
[57] = system: OVCAR-8
[58] = system: SR

Measured: GI50

Nc1nc(N)c2ncn(CC3CCC(CO)C3)c2n1 (configuration not stated)
> 100 µM: [12]
inactive: [1] > 100 µM | [2] > 100 µM | [3] > 100 µM | [4] > 100 µM | [5] > 100 µM | [6] > 100 µM | [7] > 100 µM | [8] > 100 µM | [9] > 100 µM | [10] > 100 µM | [11] > 100 µM | [13] > 100 µM | [14] > 100 µM | [15] > 100 µM | [16] > 100 µM | [17] > 100 µM | [18] > 100 µM | [19] > 100 µM | [20] > 100 µM | [21] > 100 µM | [22] > 100 µM | [23] > 100 µM | [24] > 100 µM | [25] > 100 µM | [26] > 100 µM | [27] > 100 µM | [28] > 100 µM | [29] > 100 µM | [30] > 100 µM | [31] > 100 µM | [32] > 100 µM | [33] > 100 µM | [34] > 100 µM | [35] > 100 µM | [36] > 100 µM | [37] > 100 µM | [38] > 100 µM | [39] > 100 µM | [40] > 100 µM | [41] > 100 µM | [42] > 100 µM | [43] > 100 µM | [44] > 100 µM | [45] > 100 µM | [46] > 100 µM | [47] > 100 µM | [48] > 100 µM | [49] > 100 µM

CN(C)/N=C(/CC(O)(C(F)(F)F)C(F)(F)F)c1ccc([N+](=O)[O-])cc1
inactive: [1] > 100 µM | [2] > 100 µM | [3] > 100 µM | [4] > 100 µM | [5] > 100 µM | [6] > 100 µM | [7] > 100 µM | [8] > 100 µM | [9] > 100 µM | [10] > 100 µM | [11] > 100 µM | [50] > 100 µM | [13] > 100 µM | [14] > 100 µM | [51] > 100 µM | [15] > 100 µM | [52] 80.5 µM | [16] > 100 µM | [17] > 100 µM | [18] > 100 µM | [19] > 100 µM | [21] > 100 µM | [22] > 100 µM | [23] > 100 µM | [24] > 100 µM | [53] > 100 µM | [25] > 100 µM | [54] > 100 µM | [55] > 100 µM | [56] > 100 µM | [26] > 100 µM | [27] > 100 µM | [28] > 100 µM | [29] > 100 µM | [57] > 100 µM | [30] > 100 µM | [31] > 100 µM | [32] > 100 µM | [33] > 100 µM | [34] > 100 µM | [35] > 100 µM | [36] > 100 µM | [37] > 100 µM | [38] > 100 µM | [39] > 100 µM | [40] > 100 µM | [41] > 100 µM | [42] > 100 µM | [58] > 100 µM | [43] > 100 µM | [44] > 100 µM | [46] > 100 µM | [47] > 100 µM | [48] > 100 µM | [49] 98.6 µM
> 100 µM: [12]

C/C(CC1SCCCS1)=C(/C)CC1SCCCS1
> 100 µM: [12]
inactive: [1] > 100 µM | [2] > 100 µM | [3] > 100 µM | [4] > 100 µM | [5] > 100 µM | [6] > 100 µM | [7] > 100 µM | [8] > 100 µM | [9] > 100 µM | [10] > 100 µM | [11] > 100 µM | [50] > 100 µM | [13] > 100 µM | [51] > 100 µM | [15] > 100 µM | [52] > 100 µM | [16] > 100 µM | [17] > 100 µM | [18] > 100 µM | [19] > 100 µM | [20] > 100 µM | [21] > 100 µM | [22] > 100 µM | [23] > 100 µM | [24] > 100 µM | [53] > 100 µM | [25] > 100 µM | [54] > 100 µM | [55] > 100 µM | [26] > 100 µM | [27] > 100 µM | [28] > 100 µM | [29] > 100 µM | [57] > 100 µM | [30] > 100 µM | [31] > 100 µM | [32] > 100 µM | [33] > 100 µM | [34] > 100 µM | [35] > 100 µM | [36] > 100 µM | [37] > 100 µM | [38] > 100 µM | [40] > 100 µM | [41] > 100 µM | [42] > 100 µM | [58] > 100 µM | [43] > 100 µM | [44] > 100 µM | [45] > 100 µM | [48] > 100 µM | [49] > 100 µM

O=C(/C=C\c1ccc(Cl)cc1Cl)c1cccs1
14.4 µM: [12]
inactive: [1] 17.5 µM | [2] 19.7 µM | [3] 24.9 µM | [4] 14.7 µM | [5] 24.2 µM | [6] 21.3 µM | [7] 16.5 µM | [8] 21.3 µM | [9] 16.9 µM | [11] 9.57 µM | [50] 37.2 µM | [13] 24.3 µM | [14] 26.4 µM | [51] 23.4 µM | [15] 24.8 µM | [16] 21.1 µM | [17] 16.3 µM | [18] > 10 µM | [19] 18.8 µM | [20] 6.89 µM | [21] 16.7 µM | [22] 16.6 µM | [23] 16.6 µM | [24] 30.2 µM | [53] 21.4 µM | [25] 20.7 µM | [54] 19.2 µM | [55] 23.9 µM | [56] 21.2 µM | [26] 30.4 µM | [27] 28.4 µM | [29] 20 µM | [57] 12 µM | [30] 16.4 µM | [31] 3.61 µM | [32] 24 µM | [33] 23.4 µM | [34] 18.3 µM | [35] 19.8 µM | [36] 24.5 µM | [37] 18.9 µM | [38] 16.3 µM | [39] 26.1 µM | [40] 17.4 µM | [41] 17 µM | [42] 25.2 µM | [58] 5.61 µM | [43] 12.5 µM | [44] 21.9 µM | [45] 24.5 µM | [47] 19.5 µM | [48] 14.7 µM | [49] 11.9 µM

C#CCn1c(=O)c2cc(OC)c(OC)cc2n(CC#C)c1=O
> 10 µM: [12]
inactive: [1] > 10 µM | [2] > 10 µM | [3] > 10 µM | [4] > 10 µM | [5] > 10 µM | [6] > 10 µM | [7] > 10 µM | [8] > 10 µM | [9] > 10 µM | [10] > 10 µM | [11] > 10 µM | [13] > 10 µM | [14] > 10 µM | [51] > 10 µM | [15] > 10 µM | [52] > 10 µM | [16] > 10 µM | [17] > 10 µM | [18] > 10 µM | [19] > 10 µM | [20] > 10 µM | [21] > 10 µM | [22] > 10 µM | [23] > 10 µM | [24] > 10 µM | [53] > 10 µM | [25] > 10 µM | [54] > 10 µM | [55] > 10 µM | [56] > 10 µM | [26] > 10 µM | [27] > 10 µM | [28] > 10 µM | [29] > 10 µM | [57] > 10 µM | [30] > 10 µM | [31] > 10 µM | [32] > 10 µM | [33] > 10 µM | [34] > 10 µM | [35] > 10 µM | [36] > 10 µM | [37] > 10 µM | [38] > 10 µM | [39] > 10 µM | [40] > 10 µM | [41] > 10 µM | [42] > 10 µM | [43] > 10 µM | [44] > 10 µM | [45] > 10 µM | [46] > 10 µM | [47] > 10 µM | [49] > 10 µM
